# Results reported in patent US10774076B2, “Benzazole compounds and methods for making and using the compounds” (Rigel Pharmaceuticals, Inc., priority 2015, dated 2020).
# Columns and labels:
# [1] = test system: IL23-p19; test: Compound screening using DC cells: LPS-induced IL-23 (p19/p40) ELISA in IFNγ-primed dendritic cells differentiated from human PBMC; assay type: cell-based; details: Dendritic cell, human PBMC-derived dendritic cells, LPS 1 μg/ml, 18 hours, 10 pt
# Experimental: Compound Screening Using DC Cells
# Human PBMC cells (400 million) obtained from the vendor were transferred into a T-175 flask containing 15 ml RPMI media (10% FBS) and incubate for 2 hours at 37° C. After 2 hours, the media including floating cells was aspirated out carefully and 12 ml of fresh RPMI media (10% FBS) containing GMCSF (100 ng/ml) and IL4 (20 ng/ml) was added, and the flask was kept in a 37° C. incubator for 7 days.
# After 3 days, fresh GMCSF (100 ng/ml) and IL4 (20 ng/ml) were added to the flask and the incubation continued. After 7 days, the fully differentiated cells were harvested by spinning down (1200 rpm/5 min) and aspirating the media. The cells were suspended in fresh RPMI media (10% FBS) containing 50 ng/ml IFNγ (1000 U/ml) and then plated (50K/well in 100 μl) onto a white clear bottom 96 well plate and left in a 37° C. incubator for 24 hours.
# After 24 hours incubation, 100 μl of RPMI media was added containing 2× concentrated test compound per well to the above cell-culture media (final concentration becomes 1×) and the plates were pre-incubated for 1 hour at 37° C. before stimulating with LPS.
# After 1 hour compound pre-incubation, 10 μl per well of 20× concentrated LPS solution in RPMI media was added to give a final concentration of 1 μg/ml. The mixture was shaken and incubated the plates at 37° C. for an additional 18 hours.
# 155 μl of the supernatant was harvested from each well carefully (without the tip touching the bottom of the well) and to the remaining 50 μl/well of the cell culture plate was added 50 μl of Cell Titer Glo reagent. The mixture was incubated for 1-2 minutes on a shaker and the plate was read for luminescence intensity to determine the compound cytotoxicity. The cell culture supernatant collected above was used to carry out IL23 ELISA (65 μl—Supernatant) and IL10 ELISA (90 μl—Supernatant) as described below.
# Human IL-23 (p19/p40) ELISA Protocol (e-Biosciences)
# To 10.5 ml PBS add 50 μl of anti-IL23 (p19) was added capture antibody (2.5 μg/ml). The mixture was mixed well and 100 μl of the coating solution was added to each well of the 96 well white plates from Pierce. The wells were covered and incubated overnight at 4° C.
# The anti-IL23 (p19)-antibody-coated plates were washed 2× using TBST (use plate washer) and blocked using 200 μl of 0.5% Casein for 1.5-2 hours at room temperature with shaking.
# The plates were washed 2× using TBST and the supernatant was transferred (65 μl/well) to the above pre-blocked/IL23(p19)-antibody-coated 96 well plate, and incubated at room temperature for 1.5 hours with shaking.
# The plates were washed 4× using TBST (plate washer) and 100 μl/well detection antibody solution prepared from 2 μl of biotin labeled anti-IL-12 (p40/p70) antibody in 11 ml 1% BSA/PBS solution (I-5000 dilution) was added. The plates were incubated for 1 hour with shaking at Room temperature.
# Again, the plates were washed 4× with TBST and 100 μl of HRP labeled Streptavidin (R&D Systems) solution (10 μl/10 ml 1% BSA solution) was added, and the plates were incubated at room temperature for another 45 minutes with shaking.
# After 45 minutes, the plates were washed with TBST 4× and 100 ul/well Super Signal ELISA Pico Chemiluminescent Substrate from Pierce (3.5 ml A+3.5 ml B+3.5 ml MQ water) was added. The plates were shaken for 1-2 minutes then read on a plate reader.
# [2] = test system: IL23p19; test: LPS Induced IL23p19 in THP-1 Cells (with IFNγ Primed) Assay; assay type: cell-based; details: Homo sapiens, IFNγ primed (50 ng/mL), LPS 1 ug/mL, 18 hours, 10 pt, read-out: IL23-p19 ELISA, THP1-IFNy, LPS, 10 pt EC50
# From the text: LPS Induced IL23p19 in THP-1 Cells (with IFNγ Primed) Assay
# THP-1 Cells (ATCC, Cat # TIB-202), Dimethyl Sulfoxide (DMSO) (Sigma-Aldrich, Cat # D2650), RPMI 1640 (Cellgro, Cat #10-040-CM), Fetal Bovine Serum (Sigma, Cat # F4135), Albumin From Bovine Serum (BSA) (Sigma-Aldrich, Cat # A7906), LPS (Serotype K-235, Sigma, Product Number L 2143), IFNγ (Peprotech, Cat #300-02)
# Capture antibody: Human IL-23p19 ELISA (e-Bioscience, Cat. #14-7238-85),
# Detection antibody: Primary Mouse Biotinylated anti-human IL-12(p40/p70) (e-Bioscience, Cat. #13-7129-85), Secondary HRP-conjugated Streptavidin (R&D Systems, Cat # DY998), 1×PBST Washing Buffer (PBS-Tween tablet) (VWR International, Cat #80058-558), ELISA Blocking Buffer (PBS with 1% BSA), ELISA Dilution Buffer (PBS with 1% BSA), 384 Well Flat-Bottom, MaxiSorp Black Immuno Plates (Thermo Scientific, Cat #12-565-346), 384 Well Flat-Bottom, White Tissue Culture Plates (Thermo Scientific, Cat #12-565-343), Super Signal ELISA Pico Chemiluminescent Substrate (Thermo Scientific, Cat #37070), Cell Titer Glo reagent (Promega, Cat # G7573), Positive control, IKK2VI inhibitor (Calbiochem, Cat #401483), AquaMax 4000 plate washer (Molecular Devices), Luminometer, Wallac Victor2 1420 Multilabel Counter. Method THP-1 Cells Stimulation:
# On day 1, 50K/well THP-1 cells were seeded and primed with IFNγ (50 ng/mL) in 384-well plates for about 18 hours in RPMI media with 10% FBS. On day 2, the compound was serially diluted in DMSO from 5 mM in 3-fold dilutions, and then diluted 1:125 in RPMI media with 10% FBS. 50 μL/well 2× compound was added to 50 μL/well THP-1 cells (with IFNγ primed) in duplicate in 384 well tissue culture plates. The cells were pre-incubated with compound for 1 hour at 37° C., 5% CO2 before addition of 10 μL/well 11×LPS to give a final concentration of 1 ug/mL LPS. Day 3, after stimulation for 18 hours at 37° C., 5% CO2, the assay plate was centrifuged and 70 μL/well supernatant was harvested. IL-23p19 protein in 70 μL/well of supernatant was measured by sandwich ELISA, and 25 μl/well Cell Titer Glo reagent was added to the remaining cells to measure compound toxicity.
# Human IL-23p19 Sandwich ELISA:
# Maxisorp immuno ELISA plates were pre-coated with 25 μL/well of anti-IL-23p19 capture antibody (2.5 ug/mL) in PBS overnight at room temperature. After washing with 1×PBST, the plates were blocked using 100 μL/well of 1% BSA in PBS for 2 hours at room temperature. The plates were washed three times with 1×PBST and 70 μL/well supernatant were added. The plates were incubated at room temperature for 2 hours with shaking and washed three times with 1×PBST. 25 μL/well of biotin labeled anti-IL-12(p40/p70) detection antibody (100 ng/mL) in PBS with 1% BSA was added and the plates were incubated at room temperature for 2 hours with shaking. After washing three times with 1×PBST, 25 μL/well of streptavidin-HRP (1:200) in PBS with 1% BSA was added and the plates were incubated at room temperature for 20 minutes with shaking. The plates were washed three times with 1×PBST and 25 μL/well of Super Signal ELISA Pico Chemiluminescent Substrate were added. The plates were read with a luminometer, and the chemiluminescence values were entered into Athena (Rigel) for curve fitting, EC50 calculation, and database storage.
SMILES,EC50 [1] [nM],EC50 [2] [nM]
"O=C(Nc1cc2oc(N3CCCCC3)nc2cc1N1CCCCC1)c1ccc(-c2cc[nH]n2)o1 [Compound I-32, N-(2,5-di(piperidin-1-yl)benzo[d]oxazol-6-yl)-5-(1H-pyrazol-3-yl)furan-2-carboxamide]",24100,1780
"Cc1cc(-c2ccc(C(=O)Nc3cc4oc(N5CCOCC5)nc4cc3N3CCCC(F)C3)o2)ccn1 (stereo not drawn) [Compound I-39, N-(5-(3-fluoropiperidin-1-yl)-2-morpholinobenzo[d]oxazol-6-yl)-5-(2-methylpyridin-4-yl)furan-2-carboxamide]",8070,355
"CN1CCN(c2nc3cc(N4CCCCC4)c(NC(=O)c4csc(-c5ccc(N)nc5)n4)cc3o2)CC1 [Compound I-19, 2-(6-aminopyridin-3-yl)-N-(2-(4-methylpiperazin-1-yl)-5-(piperidin-1-yl)benzo[d]oxazol-6-yl)thiazole-4-carboxamide]",674,938
"Cc1cc(-c2nc(C(=O)Nc3cc4oc(N5CCOCC5)nc4cc3N3CCCC(F)(F)C3)cs2)ccn1 [Compound I-45, N-(5-(3,3-difluoropiperidin-1-yl)-2-morpholinobenzo[d]oxazol-6-yl)-2-(2-methylpyridin-4-yl)thiazole-4-carboxamide]",402,342
"Cc1cc(-c2nc(C(=O)Nc3cc4oc(N5CCN(C)CC5)nc4cc3N3CCCCC3)cs2)ccn1 [Compound I-22, N-(2-(4-methylpiperazin-1-yl)-5-(piperidin-1-yl)benzo[d]oxazol-6-yl)-2-(2-methylpyridin-4-yl)thiazole-4-carboxamide]",3180,677
"Nc1ccc(-c2ccc(C(=O)Nc3cc4oc(N5CCOCC5)nc4cc3N3CCCCC3)o2)cn1 [Compound I-1, 5-(6-aminopyridin-3-yl)-N-(2-morpholino-5-(piperidin-1-yl)benzo[d]oxazol-6-yl)furan-2-carboxamide]",4730,898
"Cc1cc(-c2ccc(C(=O)Nc3cc4oc(N5CCOCC5)nc4cc3N3CCC(F)CC3)o2)ccn1 [Compound I-24, N-(5-(4-fluoropiperidin-1-yl)-2-morpholinobenzo[d]oxazol-6-yl)-5-(2-methylpyridin-4-yl)furan-2-carboxamide]",5770,1080
"CN1CCN(c2nc3cc(N4CCCCC4)c(NC(=O)c4ccc(-c5cc[nH]n5)o4)cc3o2)CC1 [Compound I-17, N-(2-(4-methylpiperazin-1-yl)-5-(piperidin-1-yl)benzo[d]oxazol-6-yl)-5-(1H-pyrazol-3-yl)furan-2-carboxamide]",1020,1230

# Further lines, results first:
EC50 [1] [nM],EC50 [2] [nM],SMILES
60.3,106,"CN(CCN1CCOCC1)c1nc2cc(N3CCCCC3)c(NC(=O)c3csc(-c4cn[nH]c4)n3)cc2o1 [Compound I-54, N-(2-(methyl(2-morpholinoethyl)amino)-5-(piperidin-1-yl)benzo[d]oxazol-6-yl)-2-(1H-pyrazol-4-yl)thiazole-4-carboxamide]"
123,58.5,"O=C(Nc1cc2oc(N3CCOCC3)nc2cc1N1CCOCC1)c1ccc(-c2cn[nH]c2)o1 [Compound I-48, N-(2,5-dimorpholinobenzo[d]oxazol-6-yl)-5-(1H-pyrazol-4-yl)furan-2-carboxamide]"
747,528,"O=C(Nc1cc2oc(N3CCOCC3)nc2cc1N1CCC(F)(F)CC1)c1ccc(-c2cn[nH]c2)o1 [Compound I-27, N-(5-(4,4-difluoropiperidin-1-yl)-2-morpholinobenzo[d]oxazol-6-yl)-5-(1H-pyrazol-4-yl)furan-2-carboxamide]"
48.1,50.4,"O=C(Nc1cc2oc(N3CCOCC3)nc2cc1N1CCOCC1)c1csc(-c2cn[nH]c2)n1 [Compound I-49, N-(2,5-dimorpholinobenzo[d]oxazol-6-yl)-2-(1H-pyrazol-4-yl)thiazole-4-carboxamide]"
2580,147,"Cc1cc(-c2nc(C(=O)Nc3cc4oc(N5CCOCC5)nc4cc3N3CCCC(F)C3)cs2)ccn1 (stereo not drawn) [Compound I-41, N-(5-(3-fluoropiperidin-1-yl)-2-morpholinobenzo[d]oxazol-6-yl)-2-(2-methylpyridin-4-yl)thiazole-4-carboxamide]"
18,22.4,"CN1CCN(c2nc3cc(N4CCCCC4)c(NC(=O)c4csc(-c5cn[nH]c5)n4)cc3o2)CC1 [Compound I-20, N-(2-(4-methylpiperazin-1-yl)-5-(piperidin-1-yl)benzo[d]oxazol-6-yl)-2-(1H-pyrazol-4-yl)thiazole-4-carboxamide]"
37.1,20,"O=C(Nc1cc2oc(NCCN3CCOCC3)nc2cc1N1CCCCC1)c1csc(-c2cn[nH]c2)n1 [Compound I-52, N-(2-((2-morpholinoethyl)amino)-5-(piperidin-1-yl)benzo[d]oxazol-6-yl)-2-(1H-pyrazol-4-yl)thiazole-4-carboxamide]"
